Here are results for 12 compounds from patent US10208040B2, “Fused imidazo-piperidine JAK inhibitors” (THERAVANCE BIOPHARMA R&D IP, LLC, priority 2017, dated 2019).

Series [1] addresses JAK2 (Homo sapiens (Human), UniProt O60674). In words: Biochemical JAK kinase assay (LanthaScreen), JAK2. Here is the method:
(§1) A panel of four LanthaScreen JAK biochemical assays (JAK1, 2, 3 and Tyk2) were carried in a common kinase reaction buffer (50 mM HEPES, pH 7.5, 0.01% Brij-35, 10 mM MgCl2, and 1 mM EGTA). Recombinant GST-tagged JAK enzymes and a GFP-tagged STAT1 peptide substrate were obtained from Life Technologies.
(§2) Serially diluted compounds were pre-incubated with each of the four JAK enzymes and the substrate in white 384-well microplates (Corning) at ambient temperature for 1 h. ATP was subsequently added to initiate the kinase reactions in 10 μL total volume, with 1% DMSO. […] The plates were allowed to incubate at ambient temperature for 1 h before being read on the EnVision reader (Perkin Elmer).
(§3) For dose-response analysis, percent inhibition data were plotted vs. compound concentrations, and IC50 values were determined from a 4-parameter robust fit model with the Prism software (GraphPad Software). Results were expressed as pIC50 (negative logarithm of IC50) and subsequently converted to pKi (negative logarithm of dissociation constant, Ki) using the Cheng-Prusoff equation.
(In general: In TR-FRET formats the signal depends on donor and acceptor labels being close together.)

Series [2] deals with IL-13 induced STAT6 phosphorylation in BEAS-2B human lung epithelial cells. In words: Cellular JAKI potency assay (AlphaScreen, BEAS-2B). It is filed as cell-based. The note with it: BEAS-2B cells. Here is the method:
The AlphaScreen JAKI cellular potency assay was carried out by measuring interleukin-13 (IL-13, R&D Systems) induced STAT6 phosphorylation in BEAS-2B human lung epithelial cells (ATCC). The anti-STAT6 antibody (Cell Signaling Technologies) was conjugated to AlphaScreen acceptor beads (Perkin Elmer), while the anti-pSTAT6 (pTyr641) antibody (Cell Signaling Technologies) was biotinylated using EZ-Link Sulfo-NHS-Biotin (Thermo Scientific).
BEAS-2B cells were grown at 37° C. in a 5% CO2 humidified incubator in 50% DMEM/50% F-12 medium (Life Technologies) supplemented with 10% FBS (Hyclone), 100 U/mL penicillin, 100 μg/mL streptomycin (Life Technologies), and 2 mM GlutaMAX (Life Technologies). On day 1 of the assay, cells were seeded at a 7,500 cells/well density in white poly-D-lysine-coated 384-well plates (Corning) with 25 μL medium, and were allowed to adhere overnight in the incubator. On day 2 of the assay, the medium was removed and replaced with 12 μL of assay buffer (Hank's Balanced Salt Solution/HBSS, 25 mM HEPES, and 1 mg/ml bovine serum albumin/BSA) containing dose-responses of test compounds. Compounds were serially diluted in DMSO and then diluted another 1000-fold in media to bring the final DMSO concentration to 0.1%. Cells were incubated with test compounds at 37° C. for 1 h, and followed by the addition of 12 μl of pre-warmed IL-13 (80 ng/mL in assay buffer) for stimulation. After incubating at 37° C. for 30 min, the assay buffer (containing compound and IL-13) was removed, and 10 μL of cell lysis buffer (25 mM HEPES, 0.1% SDS, 1% NP-40, 5 mM MgCl2, 1.3 mM EDTA, 1 mM EGTA, and supplement with Complete Ultra mini protease inhibitors and PhosSTOP from Roche Diagnostics). The plates were shaken at ambient temperature for 30 min before the addition of detection reagents. A mixture of biotin-anti-pSTAT6 and anti-STAT6 conjugated acceptor beads was added first and incubated at ambient temperature for 2 h, followed by the addition of streptavidin conjugated donor beads (Perkin Elmer). After a minimum of 2 h incubation, the assay plates were read on the EnVision plate reader. AlphaScreen luminescence signals were recorded and utilized to calculate the percent inhibition values based on DMSO and background controls.
For dose-response analysis, percent inhibition data were plotted vs. compound concentrations, and IC50 values were determined from a 4-parameter robust fit model with the Prism software. Results may also be expressed as the negative logarithm of the IC50 value, pIC50.
Test compounds having a lower IC50 value or higher pIC50 value in this assay show greater inhibition of IL-13 induced STAT6 phosphorylation.

Series [3] addresses Tyk2 (Homo sapiens (Human), UniProt P29597). In words: Biochemical JAK kinase assay (LanthaScreen), Tyk2. As for the experimental part:
as §1, §2, §3

Series [4] deals with JAK1 (Homo sapiens (Human), UniProt P23458). The experiment in a line: Biochemical JAK kinase assay (LanthaScreen), JAK1. As for the experimental part: as §1, §2, §3
Series [5] has as its target JAK3 (Homo sapiens (Human), UniProt P52333). The experiment in a line: Biochemical JAK kinase assay (LanthaScreen), JAK3. Here is the method: as §1, §2, §3
Series [6] deals with IL-13 induced pSTAT6 in lung tissue. In words: Murine model of IL-13 induced pSTAT6 induction in lung tissue. The series is classed as in vivo. The conditions noted are these: mouse lung, oral aspiration 1 mg/mL 50 μL, IL-13 challenge 4 h post dose, pSTAT6 at 5 hours. Here is the method:
IL-13 is an important cytokine underlying the pathophysiology of asthma (Kudlacz et al. Eur. J. Pharmacol, 2008, 582, 154-161). IL-13 binds to cell surface receptors activating members of the Janus family of kinases (JAK) which then phosphorylate STAT6 and subsequently activates further transcription pathways. In the described model, a dose of IL-13 was delivered locally into the lungs of mice to induce the phosphorylation of STAT6 (pSTAT6) which is then measured as the endpoint.
Adult balb/c mice from Harlan were used in the assay. On the day of study, animals were lightly anesthetized with isoflurane and administered either vehicle or test compound (1 mg/mL, 50 μL total volume over several breaths) via oral aspiration. Animals were placed in lateral recumbency post dose and monitored for full recovery from anesthesia before being returned to their home cage. Four hours later, animals were once again briefly anesthetized and challenged with either vehicle or IL-13 (0.03 μg total dose delivered, 50 μL total volume) via oral aspiration before being monitored for recovery from anesthesia and returned to their home cage. One hour after vehicle or IL-13 administration, lungs were collected for both pSTAT6 detection using an anti-pSTAT6 ELISA (rabbit mAb capture/coating antibody; mouse mAb detection/report antibody: anti-pSTAT6-pY641; secondary antibody: anti-mouse IgG-HRP) and analyzed for total drug concentration as described above in Assay 3.
Selected compounds of the invention were tested in the assay. Activity in the model is evidenced by a decrease in the level of pSTAT6 present in the lungs of treated animals at 5 hours compared to the vehicle treated, IL-13 challenged control animals. The difference between the control animals which were vehicle-treated, IL-13 challenged and the control animals which were vehicle-treated, vehicle challenged dictated the 0% and 100% inhibitory effect, respectively, in any given experiment.

Series [7] can be described thus: Pharmacokinetics in plasma and lung in mouse. The conditions noted are these: oral aspiration, ratio of lung exposure to plasma exposure. The series is classed as in vivo.
Series [8] has as its system alternaria-induced BALF eosinophils. In words: Murine model of Alternaria alternata-induced eosinophilic inflammation of the lung. It is filed as in vivo. The conditions noted are these: mouse, oropharyngeal aspiration, 48 h after alternaria challenge, maximum statistically significant percent inhibition. As for the experimental part:
Airway eosinophilia is a hallmark of human asthma. Alternaria alternata is a fungal aeroallergen that can exacerbate asthma in humans and induces eosinophilic inflammation in the lungs of mice (Havaux et al. Clin Exp Immunol. 2005 February; 139(2):179-88).
Seven- to nine-week old male C57 mice from Taconic were used in the study. On the day of study, animals were lightly anesthetized with isoflurane and administered either vehicle or test compound (0.03-1.0 mg/mL, 50 μL total volume over several breaths) via oropharyngeal aspiration. Animals were placed in lateral recumbency post dose and monitored for full recovery from anesthesia before being returned to their home cage. One hour later, animals were once again briefly anesthetized and challenged with either vehicle or alternaria extract (200 ug total extract delivered, 50 μL total volume) via oropharyngeal aspiration before being monitored for recovery from anesthesia and returned to their home cage. Forty-eight hours after alternaria administration, bronchoalveolar lavage fluid (BALF) was collected and eosinophils were counted in the BALF using the Advia 120 Hematology System (Siemens).
Activity in the model is evidenced by a decrease in the level of eosinophils present in the BALF of treated animals at forty-eight hours compared to the vehicle treated, alternaria challenged control animals. Data are expressed as percent inhibition of the vehicle treated, alternaria challenged BALF eosinophils response. To calculate percent inhibition, the number of BALF eosinophils for each condition is converted to percent of the average vehicle treated, alternaria challenged BALF eosinophils and subtracted from one-hundred percent.

As usually defined, the Ki is the dissociation constant of the complex between target and ligand, obtained from inhibition or displacement. A high value points to weaker binding. As usually defined, the IC50 is the concentration that gives 50% inhibition. Read a low IC50 as inhibition by little substance.

JAK3, sequence (P52333 whole entry): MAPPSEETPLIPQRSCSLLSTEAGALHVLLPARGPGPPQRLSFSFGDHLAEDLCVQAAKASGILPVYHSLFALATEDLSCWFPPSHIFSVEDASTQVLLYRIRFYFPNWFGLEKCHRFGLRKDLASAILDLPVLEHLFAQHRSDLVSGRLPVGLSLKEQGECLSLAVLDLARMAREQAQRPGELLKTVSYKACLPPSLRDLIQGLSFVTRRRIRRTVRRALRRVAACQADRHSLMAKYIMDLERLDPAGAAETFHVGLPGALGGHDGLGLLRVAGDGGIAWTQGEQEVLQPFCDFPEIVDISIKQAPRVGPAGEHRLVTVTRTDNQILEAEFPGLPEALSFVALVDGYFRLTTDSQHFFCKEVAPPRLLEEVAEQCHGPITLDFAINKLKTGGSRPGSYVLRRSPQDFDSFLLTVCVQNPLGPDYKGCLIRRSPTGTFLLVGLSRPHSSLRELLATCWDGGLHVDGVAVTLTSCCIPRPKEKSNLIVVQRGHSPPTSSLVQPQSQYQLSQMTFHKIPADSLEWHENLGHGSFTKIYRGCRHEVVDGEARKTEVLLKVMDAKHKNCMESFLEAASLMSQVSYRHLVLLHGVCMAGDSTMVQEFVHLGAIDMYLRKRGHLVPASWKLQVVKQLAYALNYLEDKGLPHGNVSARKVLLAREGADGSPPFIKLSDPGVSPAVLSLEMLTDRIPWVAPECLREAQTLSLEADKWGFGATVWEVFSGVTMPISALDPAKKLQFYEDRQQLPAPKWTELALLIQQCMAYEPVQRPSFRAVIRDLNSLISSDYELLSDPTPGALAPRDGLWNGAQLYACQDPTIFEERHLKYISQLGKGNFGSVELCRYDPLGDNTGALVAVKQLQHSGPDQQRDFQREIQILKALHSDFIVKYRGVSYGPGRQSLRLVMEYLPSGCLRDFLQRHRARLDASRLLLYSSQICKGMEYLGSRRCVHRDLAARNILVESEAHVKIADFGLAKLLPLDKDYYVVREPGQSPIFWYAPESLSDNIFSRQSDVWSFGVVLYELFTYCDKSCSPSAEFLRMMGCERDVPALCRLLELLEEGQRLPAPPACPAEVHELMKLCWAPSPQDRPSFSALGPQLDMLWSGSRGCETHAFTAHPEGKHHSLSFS
JAK1, sequence (P23458 whole entry): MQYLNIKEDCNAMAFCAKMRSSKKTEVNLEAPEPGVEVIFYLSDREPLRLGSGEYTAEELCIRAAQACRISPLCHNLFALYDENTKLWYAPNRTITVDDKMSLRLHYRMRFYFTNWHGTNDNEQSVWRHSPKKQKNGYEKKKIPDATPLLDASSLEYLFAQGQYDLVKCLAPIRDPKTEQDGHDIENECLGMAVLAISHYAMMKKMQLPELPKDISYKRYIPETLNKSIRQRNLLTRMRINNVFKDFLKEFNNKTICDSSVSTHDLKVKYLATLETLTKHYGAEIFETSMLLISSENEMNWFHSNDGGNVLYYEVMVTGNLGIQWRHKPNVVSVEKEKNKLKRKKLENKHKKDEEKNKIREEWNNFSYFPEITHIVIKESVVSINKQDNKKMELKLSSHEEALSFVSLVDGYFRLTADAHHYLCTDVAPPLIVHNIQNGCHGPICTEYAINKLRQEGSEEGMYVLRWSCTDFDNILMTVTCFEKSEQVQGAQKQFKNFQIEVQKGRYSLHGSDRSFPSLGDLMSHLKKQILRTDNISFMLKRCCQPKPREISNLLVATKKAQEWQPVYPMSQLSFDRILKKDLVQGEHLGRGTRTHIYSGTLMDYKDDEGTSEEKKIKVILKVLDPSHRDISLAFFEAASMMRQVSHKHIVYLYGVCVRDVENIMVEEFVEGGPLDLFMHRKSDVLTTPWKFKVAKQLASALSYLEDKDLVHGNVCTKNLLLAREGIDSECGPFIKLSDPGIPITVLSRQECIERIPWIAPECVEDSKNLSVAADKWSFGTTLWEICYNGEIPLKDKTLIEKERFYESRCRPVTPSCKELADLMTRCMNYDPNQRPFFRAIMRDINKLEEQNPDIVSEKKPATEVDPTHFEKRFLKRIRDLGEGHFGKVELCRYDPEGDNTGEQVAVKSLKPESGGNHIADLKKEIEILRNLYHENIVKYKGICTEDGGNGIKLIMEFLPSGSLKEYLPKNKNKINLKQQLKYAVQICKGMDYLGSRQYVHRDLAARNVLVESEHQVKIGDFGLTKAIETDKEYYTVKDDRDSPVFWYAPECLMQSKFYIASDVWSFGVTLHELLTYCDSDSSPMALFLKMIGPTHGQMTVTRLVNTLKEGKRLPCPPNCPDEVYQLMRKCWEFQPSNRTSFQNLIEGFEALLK
Tyk2, sequence (P29597 whole entry): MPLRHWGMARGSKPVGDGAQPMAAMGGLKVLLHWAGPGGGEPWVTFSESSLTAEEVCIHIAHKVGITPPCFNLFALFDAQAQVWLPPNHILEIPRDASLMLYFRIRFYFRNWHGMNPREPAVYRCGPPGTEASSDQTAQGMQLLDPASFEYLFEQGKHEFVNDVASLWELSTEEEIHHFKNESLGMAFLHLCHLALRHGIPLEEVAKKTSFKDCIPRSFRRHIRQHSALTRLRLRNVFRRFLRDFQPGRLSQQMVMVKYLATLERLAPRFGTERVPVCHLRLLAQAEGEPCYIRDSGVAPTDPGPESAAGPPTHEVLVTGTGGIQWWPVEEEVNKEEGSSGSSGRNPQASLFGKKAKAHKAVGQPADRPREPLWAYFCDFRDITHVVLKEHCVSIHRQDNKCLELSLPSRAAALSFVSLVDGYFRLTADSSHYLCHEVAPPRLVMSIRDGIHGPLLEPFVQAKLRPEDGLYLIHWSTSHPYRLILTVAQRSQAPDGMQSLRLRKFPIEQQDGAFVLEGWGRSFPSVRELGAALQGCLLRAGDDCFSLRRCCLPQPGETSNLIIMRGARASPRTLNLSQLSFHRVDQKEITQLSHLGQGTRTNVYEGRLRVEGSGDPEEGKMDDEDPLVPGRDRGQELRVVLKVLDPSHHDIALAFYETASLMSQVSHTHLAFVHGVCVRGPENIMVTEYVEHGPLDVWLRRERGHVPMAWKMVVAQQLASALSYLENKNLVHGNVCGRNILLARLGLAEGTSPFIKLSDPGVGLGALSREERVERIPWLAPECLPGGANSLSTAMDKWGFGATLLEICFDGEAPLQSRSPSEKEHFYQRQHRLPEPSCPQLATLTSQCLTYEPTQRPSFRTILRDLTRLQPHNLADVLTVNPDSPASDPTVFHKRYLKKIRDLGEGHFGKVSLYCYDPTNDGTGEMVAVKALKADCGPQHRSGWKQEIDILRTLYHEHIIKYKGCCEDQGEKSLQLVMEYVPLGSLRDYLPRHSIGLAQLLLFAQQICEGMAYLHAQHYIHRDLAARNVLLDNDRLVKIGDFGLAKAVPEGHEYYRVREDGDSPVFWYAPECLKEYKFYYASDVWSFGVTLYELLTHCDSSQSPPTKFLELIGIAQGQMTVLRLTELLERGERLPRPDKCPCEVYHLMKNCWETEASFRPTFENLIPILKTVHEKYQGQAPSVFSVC
JAK2, sequence (O60674 whole entry): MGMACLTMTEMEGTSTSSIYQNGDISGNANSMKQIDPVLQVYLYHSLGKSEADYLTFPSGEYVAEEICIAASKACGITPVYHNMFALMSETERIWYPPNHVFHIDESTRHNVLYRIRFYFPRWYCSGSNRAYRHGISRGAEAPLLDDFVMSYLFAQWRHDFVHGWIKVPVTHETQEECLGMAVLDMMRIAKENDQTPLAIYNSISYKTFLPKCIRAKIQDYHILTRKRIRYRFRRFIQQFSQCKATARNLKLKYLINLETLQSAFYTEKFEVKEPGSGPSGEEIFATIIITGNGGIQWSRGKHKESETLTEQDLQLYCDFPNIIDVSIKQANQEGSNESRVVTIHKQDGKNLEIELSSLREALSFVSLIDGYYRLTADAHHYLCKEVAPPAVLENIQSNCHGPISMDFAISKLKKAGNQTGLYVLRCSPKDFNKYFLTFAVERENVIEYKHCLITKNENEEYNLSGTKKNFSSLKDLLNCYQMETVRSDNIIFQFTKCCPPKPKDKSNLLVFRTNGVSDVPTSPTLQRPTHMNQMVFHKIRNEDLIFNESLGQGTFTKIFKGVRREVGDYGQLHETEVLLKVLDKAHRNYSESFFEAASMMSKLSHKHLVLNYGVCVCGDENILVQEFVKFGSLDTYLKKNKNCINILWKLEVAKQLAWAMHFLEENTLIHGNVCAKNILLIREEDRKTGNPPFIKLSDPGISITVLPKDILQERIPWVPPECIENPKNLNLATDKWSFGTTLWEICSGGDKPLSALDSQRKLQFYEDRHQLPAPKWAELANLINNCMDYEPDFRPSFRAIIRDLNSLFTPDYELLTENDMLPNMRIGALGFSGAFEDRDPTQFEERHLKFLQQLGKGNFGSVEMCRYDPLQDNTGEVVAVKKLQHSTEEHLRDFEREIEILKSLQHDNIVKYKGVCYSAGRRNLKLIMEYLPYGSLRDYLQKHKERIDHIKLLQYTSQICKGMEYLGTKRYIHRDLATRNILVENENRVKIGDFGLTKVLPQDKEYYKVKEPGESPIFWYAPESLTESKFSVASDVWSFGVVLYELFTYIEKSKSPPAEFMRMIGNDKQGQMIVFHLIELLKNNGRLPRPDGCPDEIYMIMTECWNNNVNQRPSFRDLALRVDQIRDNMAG

Regarding `CCc1cc(O)c(F)cc1-c1ccc2c(-c3nc4c([nH]3)CNC(C(=O)N3CCN(C(C)C)CC3)C4)n[nH]c2c1` (centres unmarked) [Example 1-2], the Ki in series [1] is 0.03 nM; in series [3] it was 0.08 nM; in series [4], 0.05 nM; in series [5] it was 0.16 nM. In series [2], this compound showed a concentration for half-maximal inhibition (IC50) of 7.8 nM.

In series [2], `CCc1cc(O)c(F)cc1-c1ccc2c(-c3nc4c([nH]3)CN(C)C(C(=O)N3CCN(C(C)C)CC3)C4)n[nH]c2c1` (centres unmarked) [Example 1-12] came in with a concentration for half-maximal inhibition (IC50) of 5.9 nM.

`CCc1cc(O)c(F)cc1-c1ccc2c(-c3nc4c([nH]3)CN(C)[C@H](C(=O)N3CCN(C)C[C@@H]3C)C4)n[nH]c2c1` [Example 2-15] registered an IC50 in series [2] of 4 nM. Moreover, in series [6], the “pSTAT6 inhibition Assay 4” value is “B (B represents between 40% and 60% inhibition)”.

For the compound `CCc1cc(O)c(F)cc1-c1ccc2c(-c3nc4c([nH]3)CN(C(C)C)[C@H](C(=O)N3CCCN(C)CC3)C4)n[nH]c2c1` [Example 5, (S)-(2-(6-(2-ethyl-5-fluoro-4-hydroxyphenyl)-1H-indazol-3-yl)-5-isopropyl-4,5,6,7-tetrahydro-3H-imidazo[4,5-c]pyridin-6-yl)(4-methyl-1,4-diazepan-1-yl)methanone], the midpoint of inhibition in series [2], the IC50, lay at 6.5 nM. The “Lung to Plasma ratio Assay 3” value in series [7] was “B (B denotes a ratio between 50 and 100)”. The Ki in series [4] was determined as 0.08 nM; in series [5] it was 0.2 nM. Further, the “pSTAT6 inhibition Assay 4” value in series [6] is “B (B represents between 40% and 60% inhibition)”.

Regarding `CCc1cc(O)c(F)cc1-c1ccc2c(-c3nc4c([nH]3)CN(C)[C@H](C(=O)N3CCN(CCO)C[C@H]3C)C4)n[nH]c2c1` [Example 6, ((S)-2-(6-(2-ethyl-5-fluoro-4-hydroxyphenyl)-1H-indazol-3-yl)-5-methyl-4,5,6,7-tetrahydro-3H-imidazo[4,5-c]pyridin-6-yl)((R)-4-(2-hydroxyethyl)-2-methyl-piperazin-1-yl)methanone], the IC50 in series [2] is 4.2 nM. Also, in series [8], the “Percent Inhibition of Alternaria-induced BALF Eosinophils” value is 73. In series [4], this compound returned a Ki of 0.1 nM. Moreover, the “pSTAT6 inhibition Assay 4” value in series [6] is “B (B represents between 40% and 60% inhibition)”.

In the case of `CCCN1Cc2[nH]c(-c3n[nH]c4cc(-c5cc(F)c(O)cc5CC)ccc34)nc2C[C@H]1C(=O)N1CCN(CCO)CC1` [Example 7, (S)-(2-(6-(2-ethyl-5-fluoro-4-hydroxyphenyl)-1H-indazol-3-yl)-5-propyl-4,5,6,7-tetrahydro-3H-imidazo[4,5-c]pyridin-6-yl)(4-(2-hydroxyethyl)piperazin-1-yl)methanone], in series [2], it took 5.4 nM to reach half-maximal inhibition (IC50). For the same compound, in series [8], the “Percent Inhibition of Alternaria-induced BALF Eosinophils” value amounted to 91. This compound also showed a Ki in series [4] of 0.06 nM. Besides, the “pSTAT6 inhibition Assay 4” value in series [6] was “B (B represents between 40% and 60% inhibition)”.

`CCCN1Cc2[nH]c(-c3n[nH]c4cc(-c5cc(F)c(O)cc5CC)ccc34)nc2C[C@@H]1C(=O)N1CC[C@H](N(C)C)C1` [Example 9-21]: the Ki in series [1] was determined as 0.03 nM; in series [3], 1 nM; in series [4] it was 0.06 nM. In series [2], this compound had an IC50 of 4 nM. Further, in series [6], the “pSTAT6 inhibition Assay 4” value is “B (B represents between 40% and 60% inhibition)”.

`CCc1cc(O)c(F)cc1-c1ccc2c(-c3nc4c([nH]3)CN(CC)C(C(=O)N(C)CCN(CC)CC)C4)n[nH]c2c1` (centres unmarked) [Example 12-8]: the “pSTAT6 inhibition Assay 4” value in series [6] is “A (A represents between 60% and 80% inhibition)”.

`CCc1cc(O)c(F)cc1-c1ccc2c(-c3nc4c([nH]3)CN(CC)[C@@H](C(=O)N(C)CCN(CC)CC)C4)n[nH]c2c1` [Example 12-14, (R)—N-(2-(diethylamino)ethyl)-5-ethyl-2-(6-(2-ethyl-5-fluoro-4-hydroxyphenyl)-1H-indazol-3-yl)-N-methyl-4,5,6,7-tetrahydro-3H-imidazo[4,5-c]pyridine-6-carboxamide] registered an IC50 in series [2] of 3.3 nM. For the same compound, the “Lung to Plasma ratio Assay 3” value in series [7] was “B (B denotes a ratio between 50 and 100)”. Further, the Ki in series [4] amounted to 0.06 nM; in series [5] it was 0.2 nM. The “pSTAT6 inhibition Assay 4” value in series [6] is “B (B represents between 40% and 60% inhibition)”.

Turning to `CCCN1Cc2[nH]c(-c3n[nH]c4cc(-c5cc(F)c(O)cc5CC)ccc34)nc2CC1C(=O)N(C)C1CCN(C)CC1` (centres unmarked) [Example 13-2], in series [7], the “Lung to Plasma ratio Assay 3” value is reported as “A (A denotes a ratio 100-200)”. For the same compound, the “pSTAT6 inhibition Assay 4” value in series [6] was “A (A represents between 60% and 80% inhibition)”.

`CCCN1Cc2[nH]c(-c3n[nH]c4cc(-c5cc(F)c(O)cc5CC)ccc34)nc2CC1C(=O)N(C)C1CCN(C)CC1` (centres unmarked) [Example 13-5]: the “Lung to Plasma ratio Assay 3” value in series [7] was “A (A denotes a ratio 100-200)”. Besides, in series [6], the “pSTAT6 inhibition Assay 4” value was “C (C represents between 25% and 40% inhibition)”.

Consider `CCCN1Cc2[nH]c(-c3n[nH]c4cc(-c5cc(F)c(O)cc5CC)ccc34)nc2CC1C(=O)N(C)C1CCN(C)CC1` (centres unmarked) [Example 13-6], for which the “Lung to Plasma ratio Assay 3” value in series [7] was “B (B denotes a ratio between 50 and 100)”. Also, the “pSTAT6 inhibition Assay 4” value in series [6] is “B (B represents between 40% and 60% inhibition)”.
